Where two headings read alike, the source gives them in different places.
Columns and labels:
[1] = Cytotoxicity (CC50) in HEK-Blue IL-6 cells; type: cell-based; conditions: human, from extrapolated concentration-response curves
Description: (§1) The HEK-Blue™ IL-6 cells purchased from InvivoGen (San Diego, CA, USA) were used to seed 3 × 10^4 cells/200 µL in a 96-well plate. Each well was treated with different concentrations (0, 0.1, 1, 5, 10, 50, and 100 μM) of the isolated compounds. Recombinant human IL-6 (BioLegend, San Diego, CA, USA) was administered at 10 ng/mL. After 24 h, 20 μL of the cell suspension was added to 180 μL of QUANTI-Blue™ solution (InvivoGen, San Diego, CA, USA) in a fresh 96-well plate. After incubation at 37 °C for 2 h, the absorbance was measured spectrophotometrically (Epoch, BioTek Instruments, Winooski, VT, USA) at 635 nm. The EC50 values were calculated from a log([drug]) versus normalized response curve fit using GraphPad Prism version 5.00 for Windows (GraphPad Software, San Diego, CA, USA). The CC50 values were calculated from extrapolated concentration–response curves plotted with GraphPad Prism version 5.0 for Windows (GraphPad Software, San Diego, CA, USA) using inhibitory percentages versus the drug concentration logarithm.

[2] = test system: cisplatin-resistant A2780 (A2780-cis) cells; assay: CCK-8 cytotoxicity assay, A2780-cis; type: cell-based; conditions: Homo sapiens, A2780cis, CCK-8, 24 h
Excerpt: (§2) However, despite chemotherapy, many patients die of ovarian cancer recurrence. Inflammatory mediators such as IL-6 and several other cytokines influence drug resistance and recurrence in ovarian cancer.
(§3) The human epithelial ovarian cancer cell lines SKOV3 and A2780 were purchased from the Korean Cell Line Bank (KCLB, Seoul, Republic of Korea) and the European Collection of Cell Cultures (ECACC, Wiltshire, UK), respectively. The cisplatin-resistant A2780 (A2780-cis) and paclitaxel-resistant SKOV3 (SKOV3-TR) cells were obtained from Yonsei University (Institute of Women’s Life Medical Science, Division of Gynecological Oncology, Republic of Korea). SKOV3, SKOV3-TR, A2780, and A2780-cis cells were cultured in the RPMI-1640 medium (Welgene, Daegu, Republic of Korea). SKOV3-TR and A2780-cis cells were cultured in 100 nM paclitaxel (Cayman Chemical Company, Ann Arbor, MI, USA) and 1 µM cisplatin (Dong-A Pharmaceutical Co., Seoul, Republic of Korea), respectively. All the culture media were supplemented with 10% (v/v) fetal bovine serum and 1% penicillin or streptomycin (Gibco-BRL, Gaithersburg, MD, USA), and the cells were maintained at 37 °C in a humidified atmosphere of 5% CO2 and 95% air. Each culture medium was replaced with a fresh medium every 2–3 days.
(§4) A CCK-8 assay was performed to assess cytotoxicity. After seeding 5 × 10^5 cells/300 µL in 48-well plates, the cells were treated with the isolated compounds at 1, 5, 10, 20, 40, and 60 μM concentrations for 24 h. For the CCK-8 analysis, 30 μL of the CCK-8 solution (Dojindo, Kumamoto, Japan) was added to each well, allowed to react for 1 h, and then, the optical density value was measured at 450 nm using an ELISA microplate reader (Epoch, BioTek Instruments, Winooski, VT, USA). All the experiments were performed in triplicates. The IC50 values were calculated from a log([drug]) versus normalized response curve fit using GraphPad Prism version 5.00 for Windows (GraphPad Software, San Diego, CA, USA).

[3] = test system: IL-6 activity in HEK-Blue™ IL-6 cells; assay: IL-6 inhibition bioassay using HEK-Blue IL-6 cells (STAT3-inducible SEAP reporter, QUANTI-Blue); type: cell-based, human; conditions: for inhibition of IL-6 activity: 10 ng/ml hIL-6, 24 h (Figure S22); for EC50: 10 ng/mL IL-6, 24 h, SEAP readout, read-out: EC50 (IL-6 inhibitory activity)
Description: We isolated eighteen compounds from P. attenuatum and assessed their inhibitory effects on IL-6 activity using the HEK-Blue™ IL-6 cell line. As the HEK-Blue™ IL-6 cells were transfected with a reporter gene expressing STAT3-inducible secreted embryonic alkaline phosphatase (SEAP), STAT3 was activated, and SEAP was produced when the cells were stimulated with IL-6. The extent of the inhibition of IL-6 downstream signaling by these compounds was assessed in vitro using bazedoxifene (gp130 inhibitor) as a positive control in the HEK-Blue™ IL-6 cells. Bazedoxifene is a newly developed third-generation indole-based estrogen receptor (ER) ligand used in the treatment of postmenopausal osteoporosis, also known as gp130 inhibitor.
The cells were treated with increasing concentrations of the eighteen isolated compounds (0, 0.1, 1, 5, 10, 50, and 100 μM) in the presence of 10 ng/mL IL-6.
as §1

SKOV3 cells = assay: CCK-8 cytotoxicity assay, SKOV3; type: cell-based, human; conditions: CCK-8, 24 h
Excerpt: as §2, §3, §4

A2780 cells = assay: CCK-8 cytotoxicity assay, A2780; type: cell-based, human; conditions: CCK-8, 24 h
Excerpt: as §2, §3, §4

[4] = test system: paclitaxel-resistant SKOV3 (SKOV3-TR) cells; assay: CCK-8 cytotoxicity assay, SKOV3-TR; type: cell-based; conditions: Homo sapiens, SKOV3TR, CCK-8, 24 h
Excerpt: as §2, §3, §4

[5] = Homo sapiens, HEK-Blue IL-6, 24 h

Row | SMILES | CC50 at 24 h [1] [µM] | IC50 [2] [µM] | inhibition of IL-6 activity [3] | EC50 [3, 5] [µM] | IC50 (SKOV3 cells; Homo sapiens, SK-OV-3, 24 h) [µM] | IC50 (A2780 cells; Homo sapiens, A2780, 24 h) [µM] | IC50 [4] [µM] | TI (therapeutic index, CC50/EC50) [3] | EC50 [3] [µM] | TI (therapeutic index, CC50/EC50) ([3]; listed as bazedoxifene) | IC50 (SKOV3 cells) [µM] | IC50 (A2780 cells) [µM]
1 | O=c1cc(-c2ccc(O)cc2)oc2c(C3OC(CO)C(O)C(O)C3OC3OCC(O)(CO)C3O)c(O)cc(O)c12 (stereo not drawn) [Compound 17, ficuflavoside] | 32.5 ± 0.45 | 41 ± 0.63 | approximately 50% | 1.31 ± 0.05 | 26.6 ± 0.3 | 21.8 ± 0.45 | 40.3 ± 0.85 |  |  |  |  | 
2 | COc1ccc(CC2=C(Cc3ccc4c(c3)OCO4)C(=O)NC2OC)cc1OC (stereo not drawn) [Compound 3, piperimide III] | 28.7 ± 0.19 | 40.5 ± 1.11 | approximately 50% | 3.52 ± 0.14 | 15.76 ± 0.15 | 17.5 ± 0.19 | 41 ± 1.18 |  |  |  |  | 
3 | Cc1c(-c2ccc(O)cc2)n(Cc2ccc(OCCN3CCCCCC3)cc2)c2ccc(O)cc12 [Bazedoxifene, bazedoxifene, reference compound] | 4.07 ± 0.35 | 33.8 ± 0.15 |  | 1.91 ± 2.84 | 7.25 ± 0.62 | 8.2 ± 1.77 | 20.32 ± 0.2 | 2.14 ± 0.78 | 1.91 ± 0.43 | 2.14 |  | 
4 | CC(=O)/C=C/[C@@]1(O)C(C)=CC(=O)CC1(C)C [Compound 11, (6S)-dehydrovomifoliol] | 13.72 ± 0.11 | 14.4 ± 0.21 | approximately 50% | 2.12 ± 0.04 | ~10 | ~10 | 19.9 ± 0.22 |  |  |  | 10.7 ± 0.14 | 9.8 ± 0.11
5 | CC1(C)C[C@@H](O)C[C@@]2(C)OC(=O)C=C12 [Compound 12, (-)-loliolide] | 10.6 ± 0.1 | 16.6 ± 0.18 | approximately 50% | 0.91 ± 0.04 | ~10 | ~10 | 6.44 ± 0.1 |  |  |  | 10.7 ± 0.31 | 8.62 ± 0.1
6 | COc1ccc(C[C@H]2COC(=O)[C@@H]2Cc2ccc(OC)c(OC)c2)cc1OC [Compound 4, (-)-dimethylmatairesinol] | 22.6 ± 0.25 | 16.9 ± 0.19 | approximately 50% | 4.06 ± 0.07 | 20.04 ± 0.18 | 20.6 ± 0.25 | 33 ± 0.5 |  |  |  |  | 

Source: publication PMC11242996, “IL-6 Inhibitory Compounds from the Aerial Parts of Piper attenuatum and Their Anticancer Activities on Ovarian Cancer Cell Lines” (Molecules, 2024)
